Experimental data from ChEMBL document CHEMBL1153672, “Synthesis and biological activity of a novel class of cephalosporins with a oxadiazolyl hydroxypyridone moiety at C-7” (1995).
Values after ≈ are worked out from the molar mass of the structure shown.

Tests used:
Type in all cases: functional
[1] = test system: Staphylococcus aureus; assay: In vitro antibacterial activity against Staphylococcus aureus Smith
[2] = test system: Pseudomonas aeruginosa; assay: In vitro antibacterial activity against Pseudomonas aeruginosa IFO12689
[3] = test system: Pseudomonas aeruginosa; assay: In vitro antibacterial activity against Pseudomonas aeruginosa E-2
[4] = test system: Escherichia coli; assay: In vitro antibacterial activity against Escherichia coli ML4707
[5] = organism: Mus musculus; assay: Tested for the therapeutic efficacy against systemic infection caused by Pseudomonas aeruginosa E-2 in mice at a challenge dose of 7.9*10e4 (cfu/mouse) + 5%mucin
[6] = test system: Mus musculus; assay: Tested in vivo for the therapeutic efficacy against systemic infection caused by Staphylococcus aureus Smith in mice at a challenge dose of 3.3*10e6 (cfu/mouse) + 5%mucin
[7] = test system: Pseudomonas aeruginosa; assay: In vitro for the antibacterial activity against Pseudomonas aeruginosa E-2
[8] = test system: Mus musculus; assay: Tested in vivo for the therapeutic efficacy against systemic infection caused by Staphylococcus aureus Smith in mice at a challenge dose of 5*10e6 (cfu/mouse) + 5%mucin
[9] = test system: Mus musculus; assay: Tested in vivo for the therapeutic efficacy against systemic infection caused by Pseudomonas aeruginosa E-2 in mice at a challenge dose of 8*10e4 (cfu/mouse) + 5%mucin

SMILES	MIC [1] [µg/mL]	MIC [2] [µg/mL]	MIC [3] [µg/mL]	MIC [4] [µg/mL]	MIC [7] [µg/mL]	ED50 [5] [mg/kg]	ED50 [6] [mg/kg]	ED50 [8] [mg/kg]	ED50 [9] [mg/kg]
NC(=O)c1cc[n+](CC2=C(C(=O)[O-])N3C(=O)[C@@H]([N-]C(=O)/C(=N\OCCSc4nnc(-c5cc(O)c(O)cn5)o4)c4csc(N)n4)[C@H]3SC2)cc1.[Na+]	6.25	1.56	3.13	0.025	–	–	–	–	–
Nc1nc(/C(=N/OCCSc2nnc(-c3cc(O)c(O)cn3)o2)C(=O)N[C@@H]2C(=O)N3C(C(=O)[O-])=C(C[n+]4ccc(C(=O)[O-])cc4)CS[C@H]23)cs1.[Na+]	25	0.39	3.13	0.0125	–	–	–	–	–
CO/N=C(\C(=O)N[C@@H]1C(=O)N2C(C(=O)[O-])=C(C[n+]3cccc4c3CCC4)CS[C@H]12)c1csc(N)n1 [CEFPIROME]	–	–	–	–	–	–	1.5	–	–
Nc1nc(/C(=N/OCCSc2nnc(-c3cc(O)c(O)cn3)o2)C(=O)N[C@@H]2C(=O)N3C(C(=O)[O-])=C(CSc4nnc(N)s4)CS[C@H]23)cs1.[Na+]	6.25	0.2	0.2	≤ 0.0063	–	–	–	> 20	35
Nc1nc(/C(=N/OCCSc2nnc(-c3cc(O)c(O)cn3)o2)C(=O)N[C@@H]2C(=O)N3C(C(=O)[O-])=C(CSc4ccccn4)CS[C@H]23)cs1.[Na+]	6.25	0.039	0.39	≤ 0.0063	–	–	–	–	–
CC(C)(O/N=C(\C(=O)N[C@@H]1C(=O)N2C(C(=O)[O-])=C(C[n+]3ccccc3)CS[C@H]12)c1csc(N)n1)C(=O)O [CEFTAZIDIME]	3.13 (≈ 5.73 µM)	3.13 (≈ 5.73 µM)	1.56 (≈ 2.85 µM)	0.05 (≈ 0.0915 µM)	–	> 100	–	8.1	55
Nc1nc(/C(=N/OCCSc2nnc(-c3cc(O)c(O)cn3)o2)C(=O)N[C@@H]2C(=O)N3C(C(=O)[O-])=C(CSc4cc[n+](CC(=O)[O-])cc4)CS[C@H]23)cs1.[Na+]	12.5	0.39	1.56	≤ 0.0063	–	–	–	–	25
Nc1nc(/C(=N/OCCSc2nnc(-c3cc(O)c(O)cn3)o2)C(=O)N[C@@H]2C(=O)N3C(C(=O)[O-])=C(CSc4nnc(-c5ccncc5)o4)CS[C@H]23)cs1.[Na+]	6.25	0.39	0.78	≤ 0.0063	–	–	–	–	–
Cc1cc(SCC2=C(C(=O)[O-])N3C(=O)[C@@H](NC(=O)/C(=N\OCCSc4nnc(-c5cc(O)c(O)cn5)o4)c4csc(N)n4)[C@H]3SC2)n2nc(CO)nc2n1.[Na+]	6.25	0.39	0.2	< 0.0063	–	–	–	–	–
CN(C)CC[n+]1ccc(SCC2=C(C(=O)[O-])N3C(=O)[C@@H]([N-]C(=O)/C(=N\OCCSc4nnc(-c5cc(O)c(O)cn5)o4)c4csc(N)n4)[C@H]3SC2)cc1.[Na+]	6.25	3.13	0.78	0.025	–	–	–	–	–

More lines, in order of falling MIC [1], values ahead:

MIC [1] [µg/mL]	MIC [2] [µg/mL]	MIC [3] [µg/mL]	MIC [4] [µg/mL]	MIC [7] [µg/mL]	SMILES	ED50 [5] [mg/kg]	ED50 [6] [mg/kg]	ED50 [8] [mg/kg]	ED50 [9] [mg/kg]
3.13	0.2	0.78	≤ 0.0063	–	Nc1nc(/C(=N/OCCSc2nnc(-c3cc(O)c(O)cn3)o2)C(=O)N[C@@H]2C(=O)N3C(C(=O)[O-])=C(CSc4cnns4)CS[C@H]23)cs1.[Na+]	–	–	–	–
3.13	–	–	–	6.25	Nc1nc(/C(=N/OCc2cc(O)c(O)cn2)C(=O)[N-][C@@H]2C(=O)N3C(C(=O)[O-])=C(CSc4cc[n+](CCO)cc4)CS[C@H]23)cs1.[Na+]	> 40	0.86	–	–
3.13	0.78	3.13	0.025	–	Nc1nc(/C(=N/OCCSc2nnc(-c3cc(O)c(O)cn3)o2)C(=O)[N-][C@@H]2C(=O)N3C(C(=O)[O-])=C(C[n+]4ccccc4)CS[C@H]23)cs1.[Na+]	–	–	–	–
3.13	0.78	0.78	0.0125	–	Nc1nc(/C(=N/OCCSc2nnc(-c3cc(O)c(O)cn3)o2)C(=O)N[C@@H]2C(=O)N3C(C(=O)[O-])=C(CSc4nc5ccccc5s4)CS[C@H]23)cs1.[Na+]	–	–	–	> 100
3.13	0.78	0.78	0.0125	–	Nc1nc(/C(=N/OCCSc2nnc(-c3cc(O)c(O)cn3)o2)C(=O)[N-][C@@H]2C(=O)N3C(C(=O)[O-])=C(C[n+]4ccc(SCCO)cc4)CS[C@H]23)cs1.[Na+]	–	–	–	–
3.13	0.78	0.39	≤ 0.0063	–	Nc1nc(/C(=N/OCCSc2nnc(-c3cc(O)c(O)cn3)o2)C(=O)[N-][C@@H]2C(=O)N3C(C(=O)[O-])=C(CSc4cc[n+](CCO)cc4)CS[C@H]23)cs1.[Na+]	7.2	0.86	< 0.3	4.2
3.13	0.78	0.39	≤ 0.0063	–	CC[n+]1ccc(SCC2=C(C(=O)[O-])N3C(=O)[C@@H]([N-]C(=O)/C(=N\OCCSc4nnc(-c5cc(O)c(O)cn5)o4)c4csc(N)n4)[C@H]3SC2)cc1.[Na+]	–	–	< 0.6	19
1.56 (≈ 3.43 µM)	25 (≈ 54.9 µM)	25 (≈ 54.9 µM)	0.0125 (≈ 0.0274 µM)	–	CO/N=C(\C(=O)N[C@@H]1C(=O)N2C(C(=O)O)=C(COC(C)=O)CS[C@H]12)c1csc(N)n1 [CEFOTAXIME]	–	3	4.6	–
0.39	–	–	–	100	Nc1nc(/C(=N/OCCSc2nnc(-c3ccccn3)o2)C(=O)[N-][C@@H]2C(=O)N3C(C(=O)[O-])=C(CSc4cc[n+](CCO)cc4)CS[C@H]23)cs1.[Na+]	> 40	0.43	–	–
0.39	–	–	–	0.39	Nc1nc(/C(=N/OCCSc2nnc(-c3ccc(O)c(O)c3)o2)C(=O)[N-][C@@H]2C(=O)N3C(C(=O)[O-])=C(CSc4cc[n+](CCO)cc4)CS[C@H]23)cs1.[Na+]	34	0.86	–	–
